target: Galectin-3 (Mus musculus, UniProt P16110); assay: Dissociation constant for mouse Galectin-3
Sequence (P16110 whole entry): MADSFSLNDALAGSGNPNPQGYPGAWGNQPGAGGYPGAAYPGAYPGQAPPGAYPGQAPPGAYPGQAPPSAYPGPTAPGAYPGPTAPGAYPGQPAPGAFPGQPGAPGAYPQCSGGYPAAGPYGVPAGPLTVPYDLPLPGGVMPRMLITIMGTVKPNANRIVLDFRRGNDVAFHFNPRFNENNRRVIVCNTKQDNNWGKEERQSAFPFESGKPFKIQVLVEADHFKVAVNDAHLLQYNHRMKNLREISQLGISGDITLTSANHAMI

Kd [µM]	Compound
272	CSC1OC(CO)C(O)C(NC(=O)c2ccc3ccccc3c2)C1O (stereo not drawn)
386	CSC1OC(CO)C(O)C(n2cc(C(=O)NCCCO)nn2)C1O (stereo not drawn)
147	CSC1OC(CO)C(O)C(n2cc(-c3ccccc3)nn2)C1O (stereo not drawn)
> 20000	CSC1OC(CO)C(O)C(n2ccnn2)C1O (stereo not drawn)
1410	COC(=O)c1cn(C2C(O)C(CO)OC(SC)C2O)nn1 (stereo not drawn)
124	CCCCNC(=O)c1cn(C2C(O)C(CO)OC(SC)C2O)nn1 (stereo not drawn)
571	CSC1OC(CO)C(O)C(n2cc(C(=O)NCCN3CCOCC3)nn2)C1O (stereo not drawn)
67	CS[C@H]1O[C@@H](COC2O[C@@H](OC([C@H](O)CO)[C@H](O)[C@@H](NC(C)=O)C(C)=O)[C@H](O)[C@@H](O)[C@H]2O)[C@H](O)[C@@H](NC(=O)c2ccc3ccccc3c2)[C@@H]1O (stereo partly drawn)
4400	CS[C@H]1O[C@@H](COC2O[C@@H](O)[C@H](O)[C@@H](O)[C@H]2O)[C@H](O)[C@@H](NC(=O)c2ccc3ccccc3c2)[C@@H]1O (stereo partly drawn)
1750	CSC1OC(CO)C(O)C(n2cc(C3(O)CCCCC3)nn2)C1O (stereo not drawn)
4600	CCCc1cn(C2C(O)C(CO)OC(SC)C2O)nn1 (stereo not drawn)
230	CNC(=O)c1cn(C2C(O)C(CO)OC(SC)C2O)nn1 (stereo not drawn)
2690	CSC1OC(CO)C(O)C(NC(=O)c2ccccc2)C1O (stereo not drawn)

target: Galectin-3 (Mus musculus) (UniProt P16110); assay: Relative affinity for mouse Galectin-3 compared to D-galactose-methyl-beta-glycoside; assay type: functional
Sequence (P16110 whole entry): as above

Affinity	Compound
16	CSC1OC(CO)C(O)C(NC(=O)c2ccc3ccccc3c2)C1O (stereo not drawn)
42	CSC1OC(CO)C(O)C(n2cc(C(=O)NCc3ccccc3)nn2)C1O (stereo not drawn)
12	CSC1OC(CO)C(O)C(n2cc(C(=O)NCCCO)nn2)C1O (stereo not drawn)
29	CSC1OC(CO)C(O)C(n2cc(-c3ccccc3)nn2)C1O (stereo not drawn)
< 0.2	CSC1OC(CO)C(O)C(n2ccnn2)C1O (stereo not drawn)
3.2	COC(=O)c1cn(C2C(O)C(CO)OC(SC)C2O)nn1 (stereo not drawn)
20	LACTOSE, ANHYDROUS
36	CCCCNC(=O)c1cn(C2C(O)C(CO)OC(SC)C2O)nn1 (stereo not drawn)
7.5	CSC1OC(CO)C(O)C(n2cc(C(=O)NCCN3CCOCC3)nn2)C1O (stereo not drawn)
64	CS[C@H]1O[C@@H](COC2O[C@@H](OC([C@H](O)CO)[C@H](O)[C@@H](NC(C)=O)C(C)=O)[C@H](O)[C@@H](O)[C@H]2O)[C@H](O)[C@@H](NC(=O)c2ccc3ccccc3c2)[C@@H]1O (stereo partly drawn)
1	CS[C@H]1O[C@@H](COC2O[C@@H](O)[C@H](O)[C@@H](O)[C@H]2O)[C@H](O)[C@@H](NC(=O)c2ccc3ccccc3c2)[C@@H]1O (stereo partly drawn)
2.5	CSC1OC(CO)C(O)C(n2cc(C3(O)CCCCC3)nn2)C1O (stereo not drawn)
1	CCCc1cn(C2C(O)C(CO)OC(SC)C2O)nn1 (stereo not drawn)
19	CNC(=O)c1cn(C2C(O)C(CO)OC(SC)C2O)nn1 (stereo not drawn)
1.7	CSC1OC(CO)C(O)C(NC(=O)c2ccccc2)C1O (stereo not drawn)

From ChEMBL document CHEMBL1140248, “3-(1,2,3-Triazol-1-yl)-1-thio-galactosides as small, efficient, and hydrolytically stable inhibitors of galectin-3” (Bioorg Med Chem Lett, 2005)
